Test results as given in ChEMBL document CHEMBL5727863, “Substituted imidazo[1,2-A]pyridin-2-ylamine compounds, and pharmaceutical compositions and methods of use thereof” (2020).

Legend:
[1] = molecular target: Non-receptor tyrosine-protein kinase TYK2 (Homo sapiens, UniProt P29597); assay: (§1) In Vitro Assays for Determining the Inhibition of Janus Kinases: The in vitro inhibition of recombinant human JAKs was determined as follow.Compounds were tested in LANTHASCREEN™ time-resolved fluorescence energy transfer (TR-FRET) enzymatic assays from Invitrogen. The human Janus kinase 1 (JAK1) used in the assay is the recombinant JAK1 catalytic domain (amino acids 866-1154) expressed and purified from insect cells (Invitrogen, Cat. No. PV4774). The human Janus kinase 2 (JAK2) used in the assay is the recombinant JAK2 catalytic domain (amino acids 808-1132) expressed and purified from insect cells (Invitrogen, Cat. No. PV4210). The human Janus kinase 3 (JAK3) used in the assay is the recombinant JAK3 catalytic domain (amino acids 781-1124) expressed and purified from insect cells (Invitrogen, Cat. No. PV3855). The human tyrosine kinase 2 (TYK2) used in the assay is the recombinant TYK2 catalytic domain (amino acids 833-1187) expressed and purified from insect cells (Invitrogen, Cat. No. PV4790). The substrate is a recombinant STAT1 expressed as a fusion with GFP (Green Fluorescent Protein) to act as a physiological substrate (Invitrogen, Cat. No. PV5211).Test compounds were prepared and diluted in DMSO in 3-fold serial dilutions for 10 doses to 100× of the final testing concentrations. The compounds were then further diluted to 4× by the kinase reaction buffer (Invitrogen, Cat. No. PV3189). The enzymatic reaction for compound testing was performed in a white 384-well polypropylene plate (Packard, Cat. No. 6005214) with a total reaction volume of 10 μL containing 440 ng/mL JAK1, 11 ng/mL JAK2, 400 ng/mL JAK3, or 200 ng/mL TYK2, 100 nM substrate, and 1 mM ATP. The assay started with loading 2.5 μL of JAK1, JAK2, JAK3, or TYK2 diluted in the kinase reaction buffer to wells, followed by addition of an equal volume of 4× compounds for 15-min incubation at room temperature for pre-treatment. The enzymatic reaction was initiated by addition of 5 μL of a mixture of the substrate and ATP prepared in the kinase reaction buffer. […]
[2] = molecular target: Tyrosine-protein kinase JAK1 (Homo sapiens, UniProt P23458); assay: as §1
[3] = molecular target: Tyrosine-protein kinase JAK2 (Homo sapiens, UniProt O60674); assay: as §1

Measured: IC50

Chain of Non-receptor tyrosine-protein kinase TYK2 (P29597 whole entry, the tested form may be a part): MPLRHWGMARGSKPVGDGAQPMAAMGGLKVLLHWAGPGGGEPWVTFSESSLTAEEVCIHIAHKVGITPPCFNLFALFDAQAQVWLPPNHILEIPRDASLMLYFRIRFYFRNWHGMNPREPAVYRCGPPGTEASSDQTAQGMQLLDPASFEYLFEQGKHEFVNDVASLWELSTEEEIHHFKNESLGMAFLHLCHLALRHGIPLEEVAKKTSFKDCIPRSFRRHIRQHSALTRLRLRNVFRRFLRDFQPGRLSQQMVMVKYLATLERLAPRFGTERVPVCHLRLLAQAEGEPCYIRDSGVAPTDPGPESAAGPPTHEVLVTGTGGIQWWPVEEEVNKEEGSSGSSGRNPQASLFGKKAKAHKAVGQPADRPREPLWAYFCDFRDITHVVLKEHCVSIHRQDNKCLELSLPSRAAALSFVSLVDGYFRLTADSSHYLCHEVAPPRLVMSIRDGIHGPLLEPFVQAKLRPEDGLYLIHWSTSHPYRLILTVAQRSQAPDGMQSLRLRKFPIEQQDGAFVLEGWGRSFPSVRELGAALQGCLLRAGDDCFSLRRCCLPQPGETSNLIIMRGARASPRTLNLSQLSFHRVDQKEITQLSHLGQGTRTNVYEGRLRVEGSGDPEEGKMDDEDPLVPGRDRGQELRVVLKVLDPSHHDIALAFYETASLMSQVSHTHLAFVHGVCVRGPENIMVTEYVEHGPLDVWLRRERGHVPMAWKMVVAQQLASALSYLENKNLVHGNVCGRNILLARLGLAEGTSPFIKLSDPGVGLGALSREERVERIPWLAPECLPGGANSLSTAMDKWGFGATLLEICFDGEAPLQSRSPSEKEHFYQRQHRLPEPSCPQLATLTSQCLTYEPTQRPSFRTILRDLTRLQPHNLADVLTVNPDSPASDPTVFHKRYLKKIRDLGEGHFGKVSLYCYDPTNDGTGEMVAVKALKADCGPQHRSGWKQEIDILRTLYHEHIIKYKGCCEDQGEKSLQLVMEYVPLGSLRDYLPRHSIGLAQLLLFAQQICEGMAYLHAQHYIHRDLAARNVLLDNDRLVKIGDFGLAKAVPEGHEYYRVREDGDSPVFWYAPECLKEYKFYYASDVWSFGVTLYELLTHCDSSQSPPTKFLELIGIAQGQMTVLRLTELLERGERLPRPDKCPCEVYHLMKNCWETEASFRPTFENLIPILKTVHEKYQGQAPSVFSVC
Chain of Tyrosine-protein kinase JAK1 (P23458 whole entry): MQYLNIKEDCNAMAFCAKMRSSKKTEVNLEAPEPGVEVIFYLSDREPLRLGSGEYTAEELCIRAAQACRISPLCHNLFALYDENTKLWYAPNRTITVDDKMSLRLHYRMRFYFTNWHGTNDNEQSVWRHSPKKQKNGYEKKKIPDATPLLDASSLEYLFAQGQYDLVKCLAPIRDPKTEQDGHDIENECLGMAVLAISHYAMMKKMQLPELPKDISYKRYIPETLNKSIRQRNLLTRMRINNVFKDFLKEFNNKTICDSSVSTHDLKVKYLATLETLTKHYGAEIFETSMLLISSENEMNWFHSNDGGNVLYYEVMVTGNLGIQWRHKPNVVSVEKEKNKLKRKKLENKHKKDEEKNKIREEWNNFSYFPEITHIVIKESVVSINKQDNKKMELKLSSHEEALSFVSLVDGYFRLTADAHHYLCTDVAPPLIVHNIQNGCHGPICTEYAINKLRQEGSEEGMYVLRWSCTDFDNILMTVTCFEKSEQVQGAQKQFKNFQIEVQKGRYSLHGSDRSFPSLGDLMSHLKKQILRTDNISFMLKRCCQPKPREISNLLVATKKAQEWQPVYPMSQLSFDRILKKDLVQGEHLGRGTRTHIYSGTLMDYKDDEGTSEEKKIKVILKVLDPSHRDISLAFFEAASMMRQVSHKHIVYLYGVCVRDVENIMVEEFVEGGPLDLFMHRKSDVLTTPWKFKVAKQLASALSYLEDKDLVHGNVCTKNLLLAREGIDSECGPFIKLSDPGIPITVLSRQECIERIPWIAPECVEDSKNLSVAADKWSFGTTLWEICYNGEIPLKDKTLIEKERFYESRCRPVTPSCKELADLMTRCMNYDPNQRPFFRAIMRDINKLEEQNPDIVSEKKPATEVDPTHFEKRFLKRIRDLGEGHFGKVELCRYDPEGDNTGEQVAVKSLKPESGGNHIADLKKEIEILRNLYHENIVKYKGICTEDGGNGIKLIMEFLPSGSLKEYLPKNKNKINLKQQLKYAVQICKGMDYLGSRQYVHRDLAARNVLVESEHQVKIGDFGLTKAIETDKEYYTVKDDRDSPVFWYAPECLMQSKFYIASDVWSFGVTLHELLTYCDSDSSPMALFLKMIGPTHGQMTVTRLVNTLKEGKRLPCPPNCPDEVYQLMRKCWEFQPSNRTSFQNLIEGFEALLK
Chain of Tyrosine-protein kinase JAK2 (O60674 whole entry): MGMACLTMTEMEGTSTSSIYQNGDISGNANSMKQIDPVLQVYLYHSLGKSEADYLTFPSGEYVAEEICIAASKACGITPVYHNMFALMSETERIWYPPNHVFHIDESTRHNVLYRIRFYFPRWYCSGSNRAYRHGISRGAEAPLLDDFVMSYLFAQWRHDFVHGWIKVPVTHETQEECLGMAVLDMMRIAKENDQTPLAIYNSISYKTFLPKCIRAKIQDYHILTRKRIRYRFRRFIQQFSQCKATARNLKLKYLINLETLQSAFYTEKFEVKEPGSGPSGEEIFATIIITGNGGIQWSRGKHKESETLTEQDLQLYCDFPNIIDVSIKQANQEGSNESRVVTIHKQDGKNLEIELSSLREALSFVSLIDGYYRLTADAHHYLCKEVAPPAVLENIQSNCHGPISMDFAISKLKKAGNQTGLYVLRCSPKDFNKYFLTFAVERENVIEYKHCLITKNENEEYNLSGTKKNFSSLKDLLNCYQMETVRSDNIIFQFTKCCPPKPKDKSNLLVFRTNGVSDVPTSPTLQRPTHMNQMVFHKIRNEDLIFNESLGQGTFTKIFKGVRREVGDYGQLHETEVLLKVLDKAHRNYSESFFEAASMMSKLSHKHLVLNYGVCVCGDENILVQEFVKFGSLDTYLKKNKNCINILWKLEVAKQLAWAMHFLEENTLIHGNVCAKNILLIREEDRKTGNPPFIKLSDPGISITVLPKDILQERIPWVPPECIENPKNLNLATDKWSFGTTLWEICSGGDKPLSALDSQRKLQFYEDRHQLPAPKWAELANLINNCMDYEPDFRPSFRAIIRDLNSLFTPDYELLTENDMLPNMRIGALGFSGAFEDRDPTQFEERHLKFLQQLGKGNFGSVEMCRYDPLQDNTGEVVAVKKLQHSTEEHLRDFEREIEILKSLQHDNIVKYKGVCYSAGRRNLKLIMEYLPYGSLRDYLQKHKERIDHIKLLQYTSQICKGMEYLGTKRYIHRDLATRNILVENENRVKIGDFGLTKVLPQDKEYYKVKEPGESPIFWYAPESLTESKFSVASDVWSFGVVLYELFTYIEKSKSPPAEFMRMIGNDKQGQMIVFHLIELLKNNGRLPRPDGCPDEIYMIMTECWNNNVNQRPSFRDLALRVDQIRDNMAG

N#CC1(c2ccc(-c3cccc4nc(NC(=O)C5CC5)cn34)cc2)CC1
> 5 µM: all assays above
